Reference: publication PMC12627232 (MedComm, 2025)

Assays:
HDAC3/NCOR1 complex = HDAC3/NCOR1 complex (Homo sapiens, UniProt O15379); assay: HDACs enzymatic assay HDAC3; format: biochemical; conditions: Class I; mean ± SD of three
Description: (§1) HDACs enzymatic assays were conducted according to our previous work. […] Substrates (Boc‐Lys(acetyl)‐AMC for HeLa nuclear extract, Ac‐Leu‐Gly‐Lys (Tfa)‐AMC for HDAC4, HDAC5, HDAC6, HDAC7, HDAC9, HDAC10, and HDAC11, Boc‐Lys(triflouroacetyl)‐AMC for HDAC8 and Ac‐Leu‐Gly‐Lys(acetyl)‐AMC for HDAC1, HDAC2, HDAC3) were added to the mixture. The blank group was set to no enzyme or drug but contains substrates and the control group was set to no drug but contains substrates and enzymes to each 96‐well plate. After 30 min of incubation at 37°C, the mixture was terminated with 1 mg/mL trypsin and 3 µM TSA. After another 30 min, the fluorescence intensity was measured using a Varioskan plate reader at 360/460 nm. […] The inhibition curves and IC50 values were simulated and calculated using the log(inhibitor) versus response (three parameters) mode in GraphPad Prism software.

NCI-H929 = assay: CCK-8 antiproliferation assay; format: cell-based; conditions: Homo sapiens, 48 h treatment
Description: (§2) Cell lines purchased from the Cell Bank of Type Culture Collection of the Chinese Academy of Sciences (Shanghai, China) were passaged after resuscitation. […] The third to tenth passages of cells were used for experiments. […] After incubation, 20 µL CCK‐8 solution (MeilunBio) was added. Two hours later, absorption was measured by a Varioskan plate at 450 nm. Inhibition curves and IC50 values were simulated and calculated using the log(inhibitor) versus response (three parameters) mode via GraphPad Prism software.

Jurkat = assay: CCK-8 antiproliferation assay; format: cell-based; conditions: Homo sapiens, 48 h treatment
Description: as §2

PC-3 = assay: CCK-8 antiproliferation assay; format: cell-based; conditions: Homo sapiens, 48 h treatment
Description: as §2

AGS = assay: CCK-8 antiproliferation assay; format: cell-based; conditions: Homo sapiens, 48 h treatment
Description: as §2

MCF-7 = assay: CCK-8 antiproliferation assay; format: cell-based; conditions: Homo sapiens, MCF7, 48 h treatment
Description: as §2

RPMI-8226 = assay: CCK-8 antiproliferation assay; format: cell-based; conditions: Homo sapiens, 48 h treatment
Description: as §2

HL-60 = assay: CCK-8 antiproliferation assay; format: cell-based; conditions: Homo sapiens, 48 h treatment
Description: as §2

KM3 = assay: CCK-8 antiproliferation assay; format: cell-based; conditions: Homo sapiens, 48 h treatment
Description: as §2

HDAC4 = molecular target: T1, HDAC4 (Homo sapiens, UniProt P56524); assay: HDACs enzymatic assay HDAC4; format: biochemical; conditions: Class IIa
T1 construct: purchased BPS BIOSCIENCE Inc 50004
Description: as §1

MDA-MB-231 cells [1] = assay: PD-L1 expression by flow cytometry; format: cell-based, human
Description: MDA‐MB‐231 cells in logarithmic growth phase were inoculated into six‐well plates with a cell density of 3 × 10^4 cells per well. After incubated at 37°C for 24 h, the original medium was abandoned and 900 µL complete medium was added, in which HitransG P infection solution was added. The virus dosage was calculated according to the formula and added to the cell. Virus volume = cell number × MOI value/virus titer. After incubated in the incubator at 37°C for 16 h, replace fresh complete medium. After that, the medium changed every 24 h. 48 h after infection, the cells were treated with or without compound at a concentration of 1 µM. After 48 h of culture, the fluorescence expression was observed under microscope, and the silencing effect of shHDAC1 was detected by Western Blot. The antibodies HDAC1 (Abmart; #T55154) and GAPDH (Beyotime; #AF2819) were used. The HDAC1‐siRNA lentivirus (shHDAC1) and negative control lentivirus (shCtrl) were obtained from Shanghai GeneChem Co., Ltd. (Shanghai, China).
Next, cells were digested into single‐cell suspension with trypsin, collected in a flow tube and washed with precooled 1 × PBS. Mouse serum was added to cells for 30 min at room temperature to block cells. Then the cells were incubated with anti‐human‐PD‐L1 (BioLegend; #329732) at 4°C for 1 h, and flow cytometry was performed with FACS Celesta (BD Biosciences, USA). […]

HDAC5 = molecular target: T2, HDAC5 (Homo sapiens, UniProt Q9UQL6); assay: HDACs enzymatic assay HDAC5; format: biochemical; conditions: Class IIa
T2 construct: purchased BPS BIOSCIENCE Inc 50005
Description: as §1

MC38 syngeneic model = assay: MC38 syngeneic model; format: in vivo
Description: C57BL/6J mice were obtained from HFK Bioscience (Beijing, China) and fed in laminar flow cabinets under SPF conditions. With the approval of the ethics committee of Shandong University, the animal experiments were conducted. […]. By the time tumors reached certain volumes, SDFZ‐8 treatment (SDFZ‐8 in PBS solution containing 5% DMSO, 60 mg/kg, qd, i.g.) was started, with five animals per treatment group. Body weight and tumor size were measured every day during the 14‐day treatment.

HDAC9 = molecular target: T3, HDAC9 (Homo sapiens, UniProt Q9UKV0); assay: HDACs enzymatic assay HDAC9; format: biochemical; conditions: Class IIa
T3 construct: purchased BPS BIOSCIENCE Inc 50009
Description: as §1

MDA-MB-231 xenograft = MDA-MB-231 xenograft model; format: in vivo, BALB/c-nu mice
Description: BALB/c‐nu mice were obtained from Pengyue Co. Ltd. (Jinan, China) and were fed in laminar flow cabinets under specific pathogen‐free (SPF) conditions. With the approval of ethics committee of Shandong University, the animal experiments were conducted. To establish the MDA‐MB‐231 xenograft model, BALB/c‐nu mice (3–4 weeks old and 15–18 g body weight, male) were selected and injected subcutaneously into the armpits with 1.2 × 10^7 MDA‐MB‐231 cells. […] Body weight and tumor size were measured every 3 days during the 22‐day treatment.

MC38 cells = assay: PD-L1 expression in MC38 cells; format: cell-based; conditions: 24 h
MDA-MB-231 cells [2] = assay: Colony formation assay; format: cell-based, human; conditions: 2 µM, 48 h
Description: The colony formation assay is performed by seeding 1000 MDA‐MB‐231 cells per well into 6‐well plates and allowing them to adhere overnight. […] Once colonies are visible (≥50 cells per colony), the medium is removed, and cells are gently washed with PBS, fixed with 4% paraformaldehyde for 15 min, and stained with Giemsa stain solution for 30 min. Excess stain is rinsed with water, and plates are air‐dried. Colonies are then imaged.

HDAC3/NCOR1 complex, sequence (O15379 whole entry): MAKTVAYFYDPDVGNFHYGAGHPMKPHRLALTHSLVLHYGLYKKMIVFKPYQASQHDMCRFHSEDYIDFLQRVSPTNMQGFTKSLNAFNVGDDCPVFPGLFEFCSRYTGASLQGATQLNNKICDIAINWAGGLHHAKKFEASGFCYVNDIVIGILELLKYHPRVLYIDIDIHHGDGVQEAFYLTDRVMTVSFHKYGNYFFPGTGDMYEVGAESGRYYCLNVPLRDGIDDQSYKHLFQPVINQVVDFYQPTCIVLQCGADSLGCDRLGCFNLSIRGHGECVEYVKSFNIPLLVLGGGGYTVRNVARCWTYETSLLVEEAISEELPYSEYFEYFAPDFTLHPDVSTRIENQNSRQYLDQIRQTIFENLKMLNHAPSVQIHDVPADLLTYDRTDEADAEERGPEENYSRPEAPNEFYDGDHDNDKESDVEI
HDAC3/NCOR1 complex, sequence (Q9Y618 395-489 partner): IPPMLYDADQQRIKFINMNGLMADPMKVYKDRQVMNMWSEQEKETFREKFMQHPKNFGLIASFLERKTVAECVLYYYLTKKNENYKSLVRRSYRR
T2 sequence (Q9UQL6 whole entry): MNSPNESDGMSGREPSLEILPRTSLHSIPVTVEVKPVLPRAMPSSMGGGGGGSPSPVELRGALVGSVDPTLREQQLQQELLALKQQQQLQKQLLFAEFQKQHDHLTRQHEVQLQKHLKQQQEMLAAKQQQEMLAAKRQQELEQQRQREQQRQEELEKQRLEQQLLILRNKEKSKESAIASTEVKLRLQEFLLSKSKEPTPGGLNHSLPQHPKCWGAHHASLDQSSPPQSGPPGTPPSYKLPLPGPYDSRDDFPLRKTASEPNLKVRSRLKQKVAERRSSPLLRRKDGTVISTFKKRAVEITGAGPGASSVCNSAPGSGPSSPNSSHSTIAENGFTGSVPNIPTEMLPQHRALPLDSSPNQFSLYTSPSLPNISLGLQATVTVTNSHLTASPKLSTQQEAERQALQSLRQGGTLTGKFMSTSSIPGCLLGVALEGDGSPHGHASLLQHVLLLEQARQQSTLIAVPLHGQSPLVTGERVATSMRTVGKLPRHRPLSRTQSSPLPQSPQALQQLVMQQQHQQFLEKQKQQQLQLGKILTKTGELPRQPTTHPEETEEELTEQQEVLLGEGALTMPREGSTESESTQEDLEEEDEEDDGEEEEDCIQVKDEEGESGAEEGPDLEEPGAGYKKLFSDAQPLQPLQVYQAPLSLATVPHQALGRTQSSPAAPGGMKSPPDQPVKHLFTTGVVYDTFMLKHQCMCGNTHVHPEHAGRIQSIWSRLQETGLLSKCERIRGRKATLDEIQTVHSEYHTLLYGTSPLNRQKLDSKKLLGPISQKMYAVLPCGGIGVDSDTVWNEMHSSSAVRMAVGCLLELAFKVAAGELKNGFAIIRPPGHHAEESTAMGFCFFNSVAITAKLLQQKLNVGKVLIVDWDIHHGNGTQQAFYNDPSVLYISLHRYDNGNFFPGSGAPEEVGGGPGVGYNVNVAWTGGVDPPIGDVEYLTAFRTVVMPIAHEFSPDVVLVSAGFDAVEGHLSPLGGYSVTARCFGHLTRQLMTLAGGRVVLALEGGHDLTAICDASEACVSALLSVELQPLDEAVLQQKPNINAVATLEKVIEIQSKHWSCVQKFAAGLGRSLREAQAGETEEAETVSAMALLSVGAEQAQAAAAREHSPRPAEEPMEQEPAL
T3 sequence (Q9UKV0 whole entry): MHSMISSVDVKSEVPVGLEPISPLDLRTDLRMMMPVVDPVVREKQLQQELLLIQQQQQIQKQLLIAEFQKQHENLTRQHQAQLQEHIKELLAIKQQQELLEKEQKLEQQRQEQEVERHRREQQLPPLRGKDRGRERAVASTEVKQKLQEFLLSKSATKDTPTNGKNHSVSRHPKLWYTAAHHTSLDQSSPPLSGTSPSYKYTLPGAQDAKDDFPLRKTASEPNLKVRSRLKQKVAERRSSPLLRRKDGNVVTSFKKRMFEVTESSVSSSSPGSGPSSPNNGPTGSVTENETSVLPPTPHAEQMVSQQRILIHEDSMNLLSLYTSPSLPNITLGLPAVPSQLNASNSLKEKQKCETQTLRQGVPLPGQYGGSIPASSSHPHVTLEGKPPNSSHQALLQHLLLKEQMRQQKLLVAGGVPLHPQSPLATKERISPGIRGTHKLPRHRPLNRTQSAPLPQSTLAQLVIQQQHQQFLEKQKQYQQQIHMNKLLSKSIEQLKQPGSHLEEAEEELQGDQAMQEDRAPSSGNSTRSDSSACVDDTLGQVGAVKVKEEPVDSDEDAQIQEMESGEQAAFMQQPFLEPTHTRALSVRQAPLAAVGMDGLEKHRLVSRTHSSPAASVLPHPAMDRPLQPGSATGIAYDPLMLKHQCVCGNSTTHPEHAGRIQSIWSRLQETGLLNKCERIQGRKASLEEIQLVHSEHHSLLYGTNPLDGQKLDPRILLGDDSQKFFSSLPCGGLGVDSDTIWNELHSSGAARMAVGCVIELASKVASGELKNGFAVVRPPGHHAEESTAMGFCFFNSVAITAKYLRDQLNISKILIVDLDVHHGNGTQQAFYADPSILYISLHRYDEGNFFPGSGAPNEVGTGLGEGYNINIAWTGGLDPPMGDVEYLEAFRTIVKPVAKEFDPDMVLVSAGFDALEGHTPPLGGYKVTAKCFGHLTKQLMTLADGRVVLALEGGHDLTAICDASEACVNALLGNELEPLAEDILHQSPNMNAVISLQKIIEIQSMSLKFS
T1 sequence (P56524 whole entry): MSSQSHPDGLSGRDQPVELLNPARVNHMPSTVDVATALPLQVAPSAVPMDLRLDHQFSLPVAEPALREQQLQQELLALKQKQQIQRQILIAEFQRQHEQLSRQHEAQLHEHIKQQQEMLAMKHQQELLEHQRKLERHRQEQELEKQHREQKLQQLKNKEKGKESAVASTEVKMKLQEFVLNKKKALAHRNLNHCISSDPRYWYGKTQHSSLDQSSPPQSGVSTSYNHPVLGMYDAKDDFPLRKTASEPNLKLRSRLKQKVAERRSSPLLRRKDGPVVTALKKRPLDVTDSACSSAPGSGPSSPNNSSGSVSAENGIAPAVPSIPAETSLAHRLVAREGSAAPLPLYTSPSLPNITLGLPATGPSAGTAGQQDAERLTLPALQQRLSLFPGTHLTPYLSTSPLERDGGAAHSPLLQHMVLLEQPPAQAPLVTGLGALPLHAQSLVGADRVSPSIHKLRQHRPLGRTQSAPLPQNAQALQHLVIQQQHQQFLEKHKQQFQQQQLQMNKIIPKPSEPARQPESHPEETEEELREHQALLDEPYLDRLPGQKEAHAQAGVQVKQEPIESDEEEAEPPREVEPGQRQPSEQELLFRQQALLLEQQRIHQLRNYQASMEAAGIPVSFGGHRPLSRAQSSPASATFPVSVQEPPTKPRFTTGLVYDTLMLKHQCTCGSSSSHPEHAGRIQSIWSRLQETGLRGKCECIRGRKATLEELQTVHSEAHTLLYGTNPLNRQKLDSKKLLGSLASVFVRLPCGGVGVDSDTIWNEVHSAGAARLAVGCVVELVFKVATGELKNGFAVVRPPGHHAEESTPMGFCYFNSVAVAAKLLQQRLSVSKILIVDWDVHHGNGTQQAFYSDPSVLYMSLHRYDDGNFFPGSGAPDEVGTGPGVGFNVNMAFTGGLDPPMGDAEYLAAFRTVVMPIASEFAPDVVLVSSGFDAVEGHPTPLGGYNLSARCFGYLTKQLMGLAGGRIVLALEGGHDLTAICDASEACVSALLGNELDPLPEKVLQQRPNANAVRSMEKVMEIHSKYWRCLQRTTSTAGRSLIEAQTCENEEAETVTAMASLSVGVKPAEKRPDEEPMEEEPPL

Q: How did the IC50 (HDAC3/NCOR1 complex) turn out when O=C(CCCCCCNC(=O)c1cc(OCCc2ccccc2)c2ccccc2n1)NO [SDFZ-8] was run?
A: 300 ± 100 nM

Q: What about the IC50 (NCI-H929) of the same molecule?
A: 100 ± 5 nM

Q: What about the IC50 (Jurkat) of the same molecule?
A: 89 ± 1 nM

Q: What about the IC50 (PC-3) of the same molecule?
A: 620 ± 70 nM

Q: And the IC50 (AGS)?
A: 560 ± 20 nM

Q: And the IC50 (MCF-7)?
A: 1960 ± 60 nM

Q: What about the IC50 (RPMI-8226) of the same molecule?
A: 460 ± 30 nM

Q: What about the IC50 (HL-60) of the same molecule?
A: 94 ± 4 nM

Q: What about the IC50 (KM3) of the same molecule?
A: 100 ± 5 nM

Q: What about the IC50 (HDAC4) of the same molecule?
A: > 10000 nM

Q: And the PD-L1 expression (MDA-MB-231 cells [1])?
A: increase

Q: What about the IC50 (HDAC5) of the same molecule?
A: > 10000 nM

Q: And the “toxicity in organs (heart, liver, spleen, lung, kidney), H&E staining” value (MC38 syngeneic model)?
A: low toxicity

Q: What about the TGI (MC38 syngeneic model; C57BL/6J mice, SDFZ-8 60 mg/kg qd i.g., 14-day treatment) of the same molecule?
A: 71%

Q: What about the IC50 (HDAC9) of the same molecule?
A: > 10000 nM

Q: And the “general health of the mice” value (MDA-MB-231 xenograft; MDA-MB-231 xenograft BALB/c-nu mice, 60 mg/kg/day)?
A: without adversely affecting the general health of the mice

Q: And the TGI (MDA-MB-231 xenograft; MDA-MB-231 xenograft, BALB/c-nu mice, 60 mg/kg/day oral gavage, 22 days)?
A: 76%

Q: And the “expression level of PD-L1” value (MC38 cells)?
A: increased

Q: What about the “colony formation of MDA-MB-231” value (MDA-MB-231 cells [2]) of the same molecule?
A: significantly inhibited
